According to patent US11033544B2, “Low-dose triple combination formulation” (THE GEORGE INSTITUTE FOR GLOBAL HEALTH, priority 2019, dated 2021):
Entries after “also recorded” stand apart in the source; their conditions may differ.

Tests used:
Format in all cases: in vivo
[1] = test system: Zucker Diabetic Fatty (ZDF) rats; assay: Whole blood glucose in the Zucker rat model of diet induced diabetes, 21 days of treatment
Source text: (§1) Study Design: • Zucker rat model of diet induced diabetes (Zucker Diabetic Fatty Rats) • Parallel randomized study • 10 animals in each of 4 treatment groups • 21 days of treatment
(§2) Main Study Outcomes: • Glucose (measured at multiple time points before and during treatment) • HbA1c (before and at the end of the treatment period) • Insulin (before and at the end of the treatment period) • Creatinine (before and at the end of the treatment period)
(§3) Ten Zucker Diabetic Fatty (ZDF) rats were randomly allocated to each of the four different treatment groups (Table 6). Whole blood glucose measurements were made from 4 days before dosing, then daily until for 8 days, then at reduced frequency. Measurements of HbA1c and creatinine were made the day prior to dosing, then at days 9 and 21. Insulin measurements were made the day prior to dosing then on day 20. A clinical chemistry sample from one animal in the vehicle group on day 9 was not available so there is a missing measurement for creatinine and HbA1c on that day
(§4) Whole blood glucose, HbA1c and Creatinine were each analyzed using a linear mixed mode (proc mixed in SAS/STAT 14.2). For WBC, unstructured, autoregressive, exchangeable and Toeplitz correlation structures for repeated measurements across the study were compared using Akaike Information Criterion and Bayesian Information Criterion. The Toeplitz correlation structure was selected as the best fitting structure. For HbA1c and Creatinine an exchangeable structure was used as there were only two measurements. Denominator degrees of freedom were calculated using the between-within subject method. The model included coefficients for baseline measurement (the closest measurement preceding dosing), type of drug treatment, time and an interaction between drug treatment and time. Marginal means (with 95% confidence intervals) for the measurement at each period for each drug were estimated, and an overall marginal mean (with 95% confidence interval) for measurements across time was estimated using weights that reflect the differing amounts of time in each measurement period (assuming each measurement represented all time since the preceding measurement). A likelihood ratio test of overall differences between treatment was initially used, if significant (p<0.05) then we tested for differences between each combination of treatments.
(§5) To test for robustness of the linear mixed model and ANCOVA models a bootstrapped 95% CI (percentile method) for the weighted marginal mean of measurements across the entire study period or single outcome measurement using 2000 replicates was estimated. The bootstrap sampling was done on individual animal (using complete measurements), with stratification by treatment type.

[2] = test system: Zucker Diabetic Fatty (ZDF) rats; assay: HbA1c in the Zucker rat model of diet induced diabetes, 21 days of treatment
Source text: as §1, §2, §3, §4, §5

[3] = test system: Zucker Diabetic Fatty (ZDF) rats; assay: Plasma insulin in the Zucker rat model of diet induced diabetes, 21 days of treatment
Source text: as §1, §2, §3
For Insulin, a baseline measure and a measurement at day 20 was available, so the ANCOVA approach (linear regression with the baseline value as a covariate) was used to test for differences in this measurement between treatments. The interaction between baseline value and treatment was tested but there was no evidence of an interaction, therefore the main effects were retained.
as §5

[4] = test system: Zucker Diabetic Fatty (ZDF) rats; assay: Serum creatinine in the Zucker rat model of diet induced diabetes, 21 days of treatment
Source text: as §1, §2, §3, §4, §5

[5] = whole study period, bootstrapped 95% CI, 2000 replicates

## CN(C)C(=N)N=C(N)N [Composition 1K-MET, Metformin]
[1]; 21 days of treatment
  WBG relative to the control group: essentially no difference
[1]; days 1-21, difference = treatment minus vehicle
  Whole blood glucose, pairwise comparison Vehicle vs treatment, Estimate (95% CI): 24.4 (−5.2-53.9) mg/dL
[1]; non-fasting whole blood glucose, time-weighted marginal mean over days 1-21 post-dosing, linear mixed model
  Overall level in WBG after dosing, Estimate (95% CI): 442.7 (421.8-463.5) mg/dL
[1]; [5]
  Whole blood glucose, bootstrap median and confidence interval: 443.4 (419.8-465.0) mg/dL
[2]; 21 days of treatment
  HbA1c relative to the control group: essentially no difference
[2]; days 9 and 21, difference = treatment minus vehicle
  HbA1c, pairwise comparison Vehicle vs treatment, Estimate (95% CI): −0.35 (−0.68-−0.01) %
[2]; measurements at days 9 and 21, marginal mean, linear mixed model
  HbA1c, overall level after dosing, estimate (95% CI): 6.52 (6.29-6.75) %
[2]; [5]
  HbA1c, bootstrap median and confidence interval: 6.53 (6.24-6.82) %
[3]; day 20
  Insulin levels relative to the control group / vehicle: no evidence of a difference; also recorded: essentially no difference
[3]; day 20, ANCOVA with baseline as covariate
  Insulin, Overall level in WBG after dosing, Estimate (95% CI): 3879 (2757-5001) pg/mL
[3]; day 20, bootstrapped 95% CI, 2000 replicates
  Insulin, bootstrap median and confidence interval: 3867 (2914-4874) pg/m
[3]; day 20, difference = treatment minus vehicle
  Insulin, pairwise comparison Vehicle vs treatment, Estimate (95% CI): 932 (−660-2524) pg/mL
[4]; 21 days of treatment
  Creatinine relative to the control group: essentially no difference
[4]; serum, days 9 and 21, difference = treatment minus vehicle
  Creatinine, pairwise comparison Vehicle vs treatment, Estimate (95% CI): 0.01 (−0.01-0.03) mg/dL
[4]; serum, days 9 and 21, marginal mean, linear mixed model
  Creatinine, Overall level in WBG after dosing, Estimate (95% CI): 0.79 (0.77-0.80) mg/dL
[4]; [5]
  Creatinine, bootstrap median and confidence interval: 0.79 (0.77-0.80) mg/dL
